system: male mice (ICR); assay: Muscle relaxation activity by grip strength test (forelimbs); assay type: in vivo; settings: Mus musculus, ip, intraperitoneal, ED50 = 50% of muscle relaxation activity compared to vehicle only (100%), determined at 0.5 h (time of maximum effect)
Description: For testing, male mice (ICR) were purchased from ORIENT BIO INC. (Korea), divided into several groups with 6 mice in each group, and were adapted for 4-5 days. The mice having the weight ranging from 19 g to 26 g were employed for the test. The pharmacological effect of the test compounds on muscle relaxation was evaluated by Rotarod test, grip strength test, and muscular force (wire hang) test. All mice were adapted to the test environment at one hour before starting the tests. The pharmacological effects of all the test compounds were evaluated by administration through peritoneal cavity of the mice (10 ul/g, bw).
The test was conducted before and after administration of the compounds to evaluate the effects thereof. […] The mouse was made to grip the rod with its forelimbs, and its tail was pulled, where the force at which the mouse detached from the rod was recorded. The instrument indicated the force in grams. All of the mice were given 3 opportunities for test, and the 3 highest values among the test opportunities were selected and the mean value was used as the test result. […] Psychopharmacol. 110: 92-96’.
The obtained results are shown as mean±sem. The difference between the groups was statistically analyzed by ANOVA, and then, further examined by Dunnett's test or Bonferroni test. If p is less than 0.05, it was determined that the difference between the groups had statistical significance.

| Compound | ED50 |
| --- | --- |
| CC1(C)O[C@H](c2ccccc2I)[C@@H](COS(N)(=O)=O)O1 [Example 27, ((4R,5R)-5-(2-iodophenyl)-2,2-dimethyl-1,3-dioxolan-4-yl)methyl sulfamate] | 378 mg/kg |

same assay, conditions: intraperitoneal, dose 200 (unit not given)

| Compound | Grip strength, percentage compared to the vehicle only (100%) |
| --- | --- |
| CCC1(CC)O[C@@H](COS(N)(=O)=O)[C@H](c2ccccc2Cl)O1 [Example 8, ((4S,4S)-5-(2-chlorophenyl)-2,2-diethyl-1,3-dioxolan-4-yl)methyl sulfamate] | 200 (59.6%) |
| NS(=O)(=O)OC[C@@H]1OC2(CCCC2)O[C@H]1c1ccccc1Cl [Example 10, ((2S,3S)-3-(2-chlorophenyl)-1,4-dioxaspiro[4,4]nonan-2-yl)methyl sulfamate] | 200 (91.2%) |
| NS(=O)(=O)OC[C@@H]1OC2(CCCCC2)O[C@H]1c1ccccc1Cl [Example 12, ((2S,3S)-3-(2-chlorophenyl)-1,4-dioxaspiro[4,5]decan-2-yl)methyl sulfamate] | 200 (57.7%) |
| CC1(C)O[C@@H](COS(N)(=O)=O)[C@H](c2ccc(Cl)cc2Cl)O1 [Example 40, ((4S,5S)-5-(2,4-dichlorophenyl)-2,2-dimethyl-1,3-dioxolan-4-yl)methyl sulfamate] | 200 (79.3%) |
| CC1(C)O[C@@H](COS(N)(=O)=O)[C@H](c2c(Cl)cccc2Cl)O1 [Example 52, ((4S,5S)-5-(2,6-dichlorophenyl)-2,2-dimethyl-1,3-dioxolan-4-yl)methyl sulfamate] | 200 (28.2%) |
| CCC1(CC)O[C@@H](COS(N)(=O)=O)[C@H](c2ccccc2N)O1 [Example 70, ((4S,5S)-5-(2-aminophenyl)-2,2-diethyl-1,3-dioxolan-4-yl)methyl sulfamate] | 200 (78.6%) |
| Nc1ccccc1[C@@H]1OC2(CCCC2)O[C@H]1COS(N)(=O)=O [Example 72, ((2S,3S)-3-(2-aminophenyl)-1,4-dioxaspiro[4,4]nonan-2-yl)methyl sulfamate] | 200 (87.0%) |
| Nc1ccccc1[C@@H]1OC2(CCCCC2)O[C@H]1COS(N)(=O)=O [Example 74, ((2S,3S)-3-(2-aminophenyl)-1,4-dioxaspiro[4,5]decan-2-yl)methyl sulfamate] | 200 (88.1%) |
| Nc1ccccc1[C@@H]1OC(c2ccccc2)O[C@H]1COS(N)(=O)=O (stereo partly drawn) [Example 76, ((4S,5S)-5-(2-aminophenyl)-2-phenyl-1,3-dioxolan-4-yl)methyl sulfamate] | 200 (78.5%) |
| NS(=O)(=O)OC[C@@H]1OC(=O)O[C@H]1c1ccccc1[N+](=O)[O-] [Example 90, ((4S,5S)-5-(2-nitrophenyl)-2-oxo-1,3-dioxolan-4-yl)methyl sulfamate] | 200 (43.8%) |
| Cc1ccccc1[C@@H]1OC(C)(C)O[C@H]1COS(N)(=O)=O [Example 92, ((4S,5S)-5-(2-methylphenyl)-2,2-dimethyl-1,3-dioxolan-4-yl)methyl sulfamate] | 200 (46.2%) |
| CNc1ccccc1[C@@H]1OC(C)(C)O[C@H]1COS(=O)(=O)NC [Example 104, ((4S,5S)-5-(2-methylaminophenyl)-2,2-dimethyl-1,3-dioxolan-4-yl)methyl methylsulfamate] | 200 (71.3%) |
| CC1(C)O[C@@H](COS(N)(=O)=O)[C@H](c2ccccc2)O1 [Example 106, ((4S,5S)-5-phenyl-2,2-dimethyl-1,3-dioxolan-4-yl)methyl sulfamate] | 200 (62.8%) |
| CCC1(CC)O[C@@H](COS(N)(=O)=O)[C@H](c2ccccc2)O1 [Example 108, ((4S,5S)-5-phenyl-2,2-diethyl-1,3-dioxolan-4-yl)methyl sulfamate] | 200 (66.8%) |
| NS(=O)(=O)OC[C@@H]1OC2(CCCC2)O[C@H]1c1ccccc1 [Example 110, ((2S,3S)-3-phenyl-1,4-dioxaspiro[4,4]nonan-2-yl)methyl sulfamate] | 200 (62.9%) |
| NS(=O)(=O)OC[C@@H]1OC2(CCCCC2)O[C@H]1c1ccccc1 [Example 112, ((2S,3S)-3-phenyl-1,4-dioxaspiro[4,5]decan-2-yl)methyl sulfamate] | 200 (33.2%) |
| CC1(C)O[C@H](CCOS(N)(=O)=O)[C@@H](Cc2ccccc2)O1 [Example 114, 2-((4R,5R)-5-benzyl-2,2-dimethyl-1,3-dioxolan-4-yl)ethyl sulfamate] | 200 (75.4%) |
| CCC1(CC)O[C@H](CCOS(N)(=O)=O)[C@@H](Cc2ccccc2)O1 [Example 116, 2-((4R,5R)-5-benzyl-2,2-diethyl-1,3-dioxolan-4-yl)ethyl sulfamate] | 200 (81.6%) |

| Compound | Grip strength, percentage compared to the vehicle only (100%) |
| --- | --- |
| NS(=O)(=O)OCC[C@H]1OC2(CCCC2)O[C@@H]1Cc1ccccc1 [Example 118, 2-((2R,3R)-3-benzyl-1,4-dioxaspiro[4,4]nonan-2-yl)ethyl sulfamate] | 200 (83.7%) |
| NS(=O)(=O)OCC[C@H]1OC2(CCCCC2)O[C@@H]1Cc1ccccc1 [Example 120, 2-((2R,3R)-3-benzyl-1,4-dioxaspiro[4,5]decan-2-yl)ethyl sulfamate] | 200 (80.5%) |
| CC1(C)O[C@H](COS(N)(=O)=O)[C@@H](Cc2ccccc2)O1 [Example 122, ((4R,5R)-5-benzyl-2,2-dimethyl-1,3-dioxolan-4-yl)methyl sulfamate] | 200 (61.6%) |
| CCC1(CC)O[C@H](COS(N)(=O)=O)[C@@H](Cc2ccccc2)O1 [Example 124, ((4R,5R)-5-benzyl-2,2-diethyl-1,3-dioxolan-4-yl)methyl sulfamate] | 200 (81.0%) |
| NS(=O)(=O)OC[C@H]1OC2(CCCC2)O[C@@H]1Cc1ccccc1 [Example 126, ((2R,3R)-3-benzyl-1,4-dioxaspiro[4,4]nonan-2-yl)methyl sulfamate] | 200 (76.7%) |
| NS(=O)(=O)OC[C@H]1OC2(CCCCC2)O[C@@H]1Cc1ccccc1 [Example 128, ((2R,3R)-3-benzyl-1,4-dioxaspiro[4,5]decan-2-yl)methyl sulfamate] | 200 (81.4%) |
| CC1(C)O[C@@H](CCOS(N)(=O)=O)[C@H](c2ccccc2)O1 [Example 130, 2-((4S,5S)-5-phenyl-2,2-dimethyl-1,3-dioxolan-4-yl)ethyl sulfamate] | 200 (91.4%) |
| CCC1(CC)O[C@@H](CCOS(N)(=O)=O)[C@H](c2ccccc2)O1 [Example 132, 2-((4S,5S)-5-phenyl-2,2-diethyl-1,3-dioxolan-4-yl)ethyl sulfamate] | 200 (25.7%) |
| NS(=O)(=O)OCC[C@@H]1OC2(CCCC2)O[C@H]1c1ccccc1 [Example 134, 2-((2S,3S)-3-phenyl-1,4-dioxaspiro[4,4]nonan-2-yl)ethyl sulfamate] | 200 (90.1%) |
| NS(=O)(=O)OCC[C@@H]1OC2(CCCCC2)O[C@H]1c1ccccc1 [Example 136, 2-((2S,3S)-3-phenyl-1,4-dioxaspiro[4,5]decan-2-yl)ethyl sulfamate] | 200 (80.8%) |
| CC1(C)O[C@H](CCOS(N)(=O)=O)[C@@H](Cc2ccccc2Cl)O1 [Example 138, 2-((4R,5R)-5-(2-chlorobenzyl)-2,2-dimethyl-1,3-dioxolan-4-yl)ethyl sulfamate] | 200 (70.1%) |
| CCC1(CC)O[C@H](CCOS(N)(=O)=O)[C@@H](Cc2ccccc2Cl)O1 [Example 140, 2-((4R,5R)-5-(2-chlorobenzyl)-2,2-diethyl-1,3-dioxolan-4-yl)ethyl sulfamate] | 200 (73.4%) |
| NS(=O)(=O)OCC[C@H]1OC2(CCCC2)O[C@@H]1Cc1ccccc1Cl [Example 142, 2-((2R,3R)-3-(2-chlorobenzyl)-1,4-dioxaspiro[4,4]nonan-2-yl)ethyl sulfamate] | 200 (66.8%) |
| NS(=O)(=O)OCC[C@H]1OC2(CCCCC2)O[C@@H]1Cc1ccccc1Cl [Example 144, 2-((2R,3R)-3-(2-chlorobenzyl)-1,4-dioxaspiro[4,5]decan-2-yl)ethyl sulfamate] | 200 (62.0%) |
| CC1(C)O[C@H](COS(N)(=O)=O)[C@@H](Cc2ccccc2Cl)O1 [Example 146, ((4R,5R)-5-(2-chlorobenzyl)-2,2-dimethyl-1,3-dioxolan-4-yl)methyl sulfamate] | 200 (79.2%) |
| CCC1(CC)O[C@H](COS(N)(=O)=O)[C@@H](Cc2ccccc2Cl)O1 [Example 148, ((4R,5R)-5-(2-chlorobenzyl)-2,2-diethyl-1,3-dioxolan-4-yl)methyl sulfamate] | 200 (70.2%) |
| NS(=O)(=O)OC[C@H]1OC2(CCCC2)O[C@@H]1Cc1ccccc1Cl [Example 150, ((2R,3R)-3-(2-chlorobenzyl)-1,4-dioxaspiro[4,4]nonan-2-yl)methyl sulfamate] | 200 (89.8%) |

From US9221783B2, “Phenylalkyl sulfamate compound and muscle relaxant composition comprising the same” (BIO-PHARM SOLUTIONS CO., LTD., priority 2012, dated 2015)
